Patent US20250034135A1, “ANTI-APOPTOTIC PROTEIN BCL-2 INHIBITOR, PHARMACEUTICAL COMPOSITION AND USES THEREOF” (HANGZHOU HEALZEN THERAPEUTICS CO., LTD., priority 2021, published 2025)

target: BCL2 (Homo sapiens (Human), UniProt P10415); assay: Molecular level activity test of anti-apoptotic protein BCL2 (HTRF, binding to Bim peptide); settings: HTRF, binding of BCL2 to Bim peptide; read-out: BCL2 nM (inhibitory activity, IC50)
Method in brief: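 HTRF readout; His-BCL2 + biotin-BIM peptide + cpd (2% DMSO in compound addition), 1 h; then anti-His + SA-XL665 detection reagents, 4 h RT.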

Chain of BCL2 (P10415 whole entry): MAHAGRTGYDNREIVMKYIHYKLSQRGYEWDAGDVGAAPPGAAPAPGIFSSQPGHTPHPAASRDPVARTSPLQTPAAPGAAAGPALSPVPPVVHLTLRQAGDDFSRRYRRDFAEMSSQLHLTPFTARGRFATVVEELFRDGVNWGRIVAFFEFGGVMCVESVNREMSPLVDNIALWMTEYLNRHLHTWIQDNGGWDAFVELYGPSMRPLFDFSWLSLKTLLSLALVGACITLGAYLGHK

IC50	SMILES
< 10 nM	CC(C)c1ccccc1[C@@H]1CN(Cc2ccc(F)cc2F)CCN1C1CC2(CCN(c3ccc(C(=O)NS(=O)(=O)c4cc([N+](=O)[O-])c(NCC5(F)CCOCC5)c5c4OCO5)c(Oc4cnc5[nH]ccc5c4)c3)CC2)C1 [compound 169, (R)-2-((1H-pyrrolo[2,3-b]pyrid-5-yl)oxy)-4-(2-(4-(2,4-difluorobenzyl)-2-(2-isopropylphenyl)piperazin-1-yl)-7-azaspiro[3.5]non-7-yl)-N-((7-(((4-fluorotetrahydro-2H-pyran-4-yl)methyl)amino)-6-nitrobenzo[d][1,3]dioxocyclopent-4-yl)sulfonyl)benzamide]
< 10 nM	CC(C)c1ccccc1[C@@H]1CN(Cc2c(F)cccc2F)CCN1C1CC2(CCN(c3ccc(C(=O)NS(=O)(=O)c4cc([N+](=O)[O-])c(NCC5(F)CCOCC5)c5c4OCO5)c(Oc4cnc5[nH]ccc5c4)c3)CC2)C1 [compound 170, (R)-2-((1H-pyrrolo[2,3-b]pyrid-5-yl)oxy)-4-(2-(4-(2,6-difluorobenzyl)-2-(2-isopropylphenyl)piperazin-1-yl)-7-azaspiro[3.5]non-7-yl)-N-((7-(((4-fluorotetrahydro-2H-pyran-4-yl)methyl)amino)-6-nitrobenzo[d][1,3]dioxocyclopent-4-yl)sulfonyl)benzamide]
< 10 nM	COc1cc(CN2CCN(C3CC4(CCN(c5ccc(C(=O)NS(=O)(=O)c6cc([N+](=O)[O-])c(NCC7(F)CCOCC7)c7c6OCO7)c(Oc6cnc7[nH]ccc7c6)c5)CC4)C3)[C@H](c3ccccc3C(C)C)C2)cc2cc(C)oc12 [compound 171, (R)-2-((1H-pyrrolo[2,3-b]pyrid-5-yl)oxy)-N-((7-(((4-fluorotetrahydro-2H-pyran-4-yl)methyl)amino)-6-nitrobenzo[d][1,3]dioxocyclopent-4-yl)sulfonyl)-4-(2-(2-(2-isopropylphenyl)-4-((7-methoxy-2-methylbenzofuran-5-yl)methyl)piperazin-1-yl)-7-azaspiro[3.5]non-7-yl)benzamide]
< 10 nM	CC(C)c1ccccc1[C@@H]1CN(Cc2ccc(C3CC3)cc2)CCN1C1CC2(CCN(c3ccc(C(=O)NS(=O)(=O)c4cc([N+](=O)[O-])c(NCC5(F)CCOCC5)c5c4OCO5)c(Oc4cnc5[nH]ccc5c4)c3)CC2)C1 [compound 172, (R)-2-((1H-pyrrolo[2,3-b]pyrid-5-yl)oxy)-4-(2-(4-(4-cyclopropylbenzyl)-2-(2-isopropylphenyl)piperazin-1-yl)-7-azaspiro[3.5]non-7-yl)-N-((7-(((4-fluorotetrahydro-2H-pyran-4-yl)methyl)amino)-6-nitrobenzo[d][1,3]dioxocyclopent-4-yl)sulfonyl)benzamide]
< 10 nM	COc1cc(CN2CCN(C3CC4(CCN(c5ccc(C(=O)NS(=O)(=O)c6cc([N+](=O)[O-])c(NCC7(F)CCOCC7)c7c6OCO7)c(Oc6cnc7[nH]ccc7c6)c5)CC4)C3)[C@H](c3ccccc3C(C)C)C2)ccc1C1CC1 [compound 173, (R)-2-((1H-pyrrolo[2,3-b]pyrid-5-yl)oxy)-4-(2-(4-(4-cyclopropyl-3-methoxybenzyl)-2-(2-isopropylphenyl)piperazin-1-yl)-7-azaspiro[3.5]non-7-yl)-N-((7-(((4-fluorotetrahydro-2H-pyran-4-yl)methyl)amino)-6-nitrobenzo[d][1,3]dioxocyclopent-4-yl)sulfonyl)benzamide]
< 10 nM	COc1ccc(CN2CCN(C3CC4(CCN(c5ccc(C(=O)NS(=O)(=O)c6cc([N+](=O)[O-])c(NC[C@H]7CC[C@](C)(O)CC7)c7c6OCO7)c(Oc6cnc7[nH]ccc7c6)c5)CC4)C3)[C@H](c3ccccc3C(C)C)C2)cn1 [compound 174, 2-((1H-pyrrolo[2,3-b]pyrid-5-yl)oxy)-N-((7-((((1r, 4r)-4-hydroxy-4-methylcyclohexyl)methyl)amino)-6-nitrobenzo[d][1,3]dioxocyclopent-4-yl)sulfonyl)-4-(2-((R)-2-(2-isopropylphenyl)-4-((6-methoxypyrid-3-yl)methyl)piperazin-1-yl)-7-azaspiro[3.5]non-7-yl)benzamide]
< 10 nM	CC(C)c1ccccc1[C@@H]1CN(Cc2ccc(F)c(F)c2)CCN1C1CC2(CCN(c3ccc(C(=O)NS(=O)(=O)c4cc([N+](=O)[O-])c(NC[C@H]5CC[C@](C)(O)CC5)c5c4OCO5)c(Oc4cnc5[nH]ccc5c4)c3)CC2)C1 [compound 176, 2-((1H-pyrrolo[2,3-b]pyrid-5-yl)oxy)-4-(2-((R)-4-(3,4-difluorobenzyl)-2-(2-isopropylphenyl)piperazin-1-yl)-7-azaspiro[3.5]non-7-yl)-N-((7-((((1r, 4r)-4-hydroxy-4-methylcyclohexyl)methyl)amino)-6-nitrobenzo[d][1,3]dioxocyclopent-4-yl)sulfonyl)benzamide]
< 10 nM	CC(C)c1ccccc1[C@@H]1CN(Cc2c(F)cccc2F)CCN1C1CC2(CCN(c3ccc(C(=O)NS(=O)(=O)c4cc([N+](=O)[O-])c(NC[C@H]5CC[C@](C)(O)CC5)c5c4OCO5)c(Oc4cnc5[nH]ccc5c4)c3)CC2)C1 [compound 177, 2-((1H-pyrrolo[2,3-b]pyrid-5-yl)oxy)-4-(2-((R)-4-(2,6-difluorobenzyl)-2-(2-isopropylphenyl)piperazin-1-yl)-7-azaspiro[3.5]non-7-yl)-N-((7-((((1r, 4r)-4-hydroxy-4-methylcyclohexyl)methyl)amino)-6-nitrobenzo[d][1,3]dioxocyclopent-4-yl)sulfonyl)benzamide]
< 10 nM	CC(C)c1ccccc1[C@@H]1CN(Cc2ccc(C3CC3)cc2)CCN1C1CC2(CCN(c3ccc(C(=O)NS(=O)(=O)c4cc([N+](=O)[O-])c(NC[C@H]5CC[C@](C)(O)CC5)c5c4OCO5)c(Oc4cnc5[nH]ccc5c4)c3)CC2)C1 [compound 178, 2-((1H-pyrrolo[2,3-b]pyrid-5-yl)oxy)-4-(2-((R)-4-(4-cyclopropylbenzyl)-2-(2-isopropylphenyl)piperazin-1-yl)-7-azaspiro[3.5]non-7-yl)-N-((7-((((1r, 4r)-4-hydroxy-4-methylcyclohexyl)methyl)amino)-6-nitrobenzo[d][1,3]dioxocyclopent-4-yl)sulfonyl)benzamide]
< 10 nM	COc1cc(CN2CCN(C3CC4(CCN(c5ccc(C(=O)NS(=O)(=O)c6cc([N+](=O)[O-])c(NC[C@H]7CC[C@](C)(O)CC7)c7c6OCO7)c(Oc6cnc7[nH]ccc7c6)c5)CC4)C3)[C@H](c3ccccc3C(C)C)C2)ccc1C1CC1 [compound 179, 2-((1H-pyrrolo[2,3-b]pyrid-5-yl)oxy)-4-(2-((R)-4-(4-cyclopropyl-3-methoxybenzyl)-2-(2-isopropylphenyl)piperazin-1-yl)-7-azaspiro[3.5]non-7-yl)-N-((7-((((1r, 4r)-4-hydroxy-4-methylcyclohexyl)methyl)amino)-6-nitrobenzo[d][1,3]dioxocyclopent-4-yl)sulfonyl)benzamide]
< 10 nM	COc1cc(CN2CCN(C3CC4(CCN(c5ccc(C(=O)NS(=O)(=O)c6cc([N+](=O)[O-])c(NC[C@H]7CC[C@](C)(O)CC7)c7c6OCO7)c(Oc6cnc7[nH]ccc7c6)c5)CC4)C3)[C@H](c3ccccc3C(C)C)C2)cc2cc(C)oc12 [compound 180]
< 10 nM	COc1ccc(CN2CCN(C3CC4(CCN(c5ccc(C(=O)NS(=O)(=O)c6cc([N+](=O)[O-])c(NCC7(F)CCOCC7)c7c6OCCO7)c(Oc6cnc7[nH]ccc7c6)c5)CC4)C3)[C@H](c3ccccc3C(C)C)C2)cc1 [compound 181]
< 10 nM	COc1ccc(CN2CCN(C3CC4(CCN(c5ccc(C(=O)NS(=O)(=O)c6cc([N+](=O)[O-])c(NC[C@H]7CC[C@](C)(O)CC7)c7c6OCCO7)c(Oc6cnc7[nH]ccc7c6)c5)CC4)C3)[C@H](c3ccccc3C(C)C)C2)cc1 [compound 182, 2-((1H-pyrrolo[2,3-b]pyrid-5-yl)oxy)-N-((8-((((1r, 4r)-4-hydroxy-4-methylcyclohexyl)methyl)amino)-7-nitro-2,3-dihydrobenzo[b][1,4]dioxan-5-yl)sulfonyl)-4-(2-((R)-2-(2-isopropylphenyl)-4-(4-methoxybenzyl)piperazin-1-yl)-7-azaspiro[3.5]non-7-yl)benzamide]
< 10 nM	COc1ccc(CN2CCN(C3CC4(CCN(c5ccc(C(=O)NS(=O)(=O)c6cc([N+](=O)[O-])c(NC[C@H]7COCCO7)c7c6OCCO7)c(Oc6cnc7[nH]ccc7c6)c5)CC4)C3)[C@H](c3ccccc3C(C)C)C2)cc1 [compound 183, N-((8-((((S)-1,4-dioxan-2-yl)methyl)amino)-7-nitro-2,3-dihydrobenzo[b][1,4]dioxan-5-yl)sulfonyl)-2-((1H-pyrrolo[2,3-b]pyrid-5-yl)oxy)-4-(2-((R)-2-(2-isopropylphenyl)-4-(4-methoxybenzyl)piperazin-1-yl)-7-azaspiro[3.5]non-7-yl)benzamide]
< 10 nM	COc1cc(CN2CCN(C3CC4(CCN(c5cc(Oc6cnc7[nH]ccc7c6)c(C(=O)NS(=O)(=O)c6ccc(NCC7(F)CCOCC7)c([N+](=O)[O-])c6)cc5F)CC4)C3)[C@H](c3ccccc3C(C)C)C2)ccc1C(C)C [compound 194, (R)-2-((1H-pyrrolo[2,3-b]pyrid-5-yl)oxy)-5-fluoro-N-((4-(((4-fluorotetrahydro-2H-pyran-4-yl)methyl)amino)-3-nitrophenyl)sulfonyl)-4-(2-(4-(4-isopropyl-3-methoxybenzyl)-2-(2-isopropylphenyl)piperazin-1-yl)-7-azaspiro[3.5]non-7-yl)benzamide]
< 10 nM	CC(C)c1ccccc1[C@@H]1CN(Cc2ccc(N(C)C)cc2)CCN1C1CC2(CCN(c3cc(Oc4cnc5[nH]ccc5c4)c(C(=O)NS(=O)(=O)c4ccc(NCC5(F)CCOCC5)c([N+](=O)[O-])c4)cc3F)CC2)C1 [compound 198, (R)-2-((1H-pyrrolo[2,3-b]pyrid-5-yl)oxy)-4-(2-(4-(4-(dimethylamino)benzyl)-2-(2-isopropylphenyl)piperazin-1-yl)-7-azaspiro[3.5]non-7-yl)-5-fluoro-N-((4-(((4-fluorotetrahydro-2H-pyran-4-yl)methyl)amino)-3-nitrophenyl)sulfonyl)benzamide]
